Assay results published in patent US9000032B2, “Substituted cyclopentenes as therapeutic agents” (Allergan, Inc., priority 2013, dated 2015).

What was measured:
hEP4/Gqs5 = molecular target: T1, hEP4/Gqs5 (Homo sapiens, UniProt P35408); experiment: FLIPR calcium signal, EP4; type: cell-based; details: HEK-293(EBNA) hEP4/Gqs5, read-out: EP4 Ca2+ EC50
T1 construct: expressed in transfected cells
Protocol: (§1) HEK-293(EBNA) cells, stably expressing one type or subtype of recombinant human prostaglandin receptors (prostaglandin receptors expressed: hDP/Gqs5; hEP1, hEP2/Gqs5; hEP3A/Gqi5; hEP4/Gqs5; hFP; hIP; hTP), were cultured in 100 mm culture dishes in high-glucose DMEM medium containing 10% fetal bovine serum, 2 mM I-glutamine, 250 μg/ml geneticin (G418) and 200 μg/ml hygromycin B as selection markers, and 100 units/ml penicillin G, 100 μg/ml streptomycin and 0.25 μg/ml amphotericin B.
(§2) Cells were seeded at a density of 5×10^4 cells per well in Biocoat® Poly-D-lysine-coated black-wall, clear-bottom 96-well plates (Becton-Dickinson) and allowed to attach overnight in an incubator at 37° C. Cells were then washed two times with HBSS-HEPES buffer (Hanks Balanced Salt Solution without bicarbonate and phenol red, 20 mM HEPES, pH 7.4) using a Denley Cellwash plate washer (Labsystems). After 45 minutes of dye-loading in the dark, using the calcium-sensitive dye Fluo-4 AM at a final concentration of 2 μM, plates were washed four times with HBSS-HEPES buffer to remove excess dye leaving 100 μl, in each well. Plates were re-equilibrated to 37° C. for a few minutes.
(§3) Cells were excited with an Argon laser at 488 nm, and emission was measured through a 510-570 nm bandwidth emission filter (FLIPR™, Molecular Devices, Sunnyvale, Calif.). Drug solution was added in a 50 μL volume to each well to give the desired final concentration. The peak increase in fluorescence intensity was recorded for each well. On each plate, four wells each served as negative (HBSS-HEPES buffer) and positive controls (standard agonists: BW245C (hDP); PGE2(hEP1, hEP2/Gqs5; hEP3A/Gqi5; hEP4/Gqs5); PGF2α (hFP); carbacyclin (hIP); U-46619 (hTP), depending on receptor). The peak fluorescence change in each drug-containing well was then expressed relative to the controls.
(§4) Compounds were tested in a high-throughput (HTS) or concentration-response (CoRe) format. […]

EP4 receptors = molecular target: T2, EP4 receptors (Homo sapiens, UniProt P35408); experiment: Radioligand binding, [3H]PGE2, EP4; details: [3H]PGE2 competition, HEK-293 cells expressing EP4; read-out: EP4 Ki EC50
T2 construct: expressed in transfected cells; membrane fraction
T2 sequence (P35408 whole entry): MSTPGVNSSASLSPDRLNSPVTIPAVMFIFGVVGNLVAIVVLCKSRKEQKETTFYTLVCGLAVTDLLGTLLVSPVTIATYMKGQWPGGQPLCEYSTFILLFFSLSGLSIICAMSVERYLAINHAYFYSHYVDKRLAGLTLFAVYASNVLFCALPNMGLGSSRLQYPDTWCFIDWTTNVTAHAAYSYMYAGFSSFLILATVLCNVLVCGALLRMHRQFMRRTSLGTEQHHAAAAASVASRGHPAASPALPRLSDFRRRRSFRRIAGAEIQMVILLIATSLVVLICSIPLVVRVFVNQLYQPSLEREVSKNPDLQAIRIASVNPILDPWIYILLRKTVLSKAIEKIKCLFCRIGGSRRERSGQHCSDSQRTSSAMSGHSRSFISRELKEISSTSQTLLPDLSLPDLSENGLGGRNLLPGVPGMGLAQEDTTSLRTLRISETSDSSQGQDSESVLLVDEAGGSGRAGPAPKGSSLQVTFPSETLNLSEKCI
Protocol: (§5) HEK-293 cells stably expressing the human or feline FP receptor, or EP1, EP2, or EP4 receptors were washed with TME buffer, scraped from the bottom of the flasks, and homogenized for 30 sec using a Brinkman PT 10/35 polytron. TME buffer was added to achieve a final 40 ml volume in the centrifuge tubes (the composition of TME is 100 mM TRIS base, 20 mM MgCl2, […]; ION HCl is added to achieve a pH of 7.4).
(§6) The cell homogenate was centrifuged at 19000 rpm for 20 min at 4° C. using a Beckman Ti-60 rotor. The resultant pellet was resuspended in TME buffer to give a final 1 mg/ml protein concentration, as determined by Biorad assay. Radioligand binding competition assays vs. [^3H-]17-phenyl PGF2α (5 nM) were performed in a 100 μl volume for 60 min. Binding reactions were started by adding plasma membrane fraction. The reaction was terminated by the addition of 4 ml ice-cold TRIS-HCl buffer and rapid filtration through glass fiber GF/B filters using a Brandel cell harvester. The filters were washed 3 times with ice-cold buffer and oven dried for one hour.
(§7) [^3H-] PGE2 (specific activity 180 Ci mmol) was used as the radio ligand for EP receptors. [^3H] 17-phenyl PGF2α was employed for FP receptor binding studies. Binding studies employing EP1, EP2, EP4 and FP receptors were performed in duplicate in at least three separate experiments. A 200 μl assay volume was used. Incubations were for 60 min at 25° C. and were terminated by the addition of 4 ml of ice-cold 50 mM TRIS-HCl, followed by rapid filtration through Whatman GF/B filters and three additional 4 ml washes in a cell harvester (Brandel). Competition studies were performed using a final concentration of 5 nM [^3H]-PGE2, or 5 nM [^3H] 17-phenyl PGF2α and non-specific binding determined with 10^−5 M of unlabeled PGE2, or 17-phenyl PGF2α according to receptor subtype studied.

hDP/Gqs5 = molecular target: T3, hDP/Gqs5 (Homo sapiens, UniProt Q13258); experiment: FLIPR calcium signal, DP; type: cell-based; details: NA listed after 'NA:', read-out: OTHER RECEPTORS Ca2+ EC50: DP
T3 construct: expressed in transfected cells
T3 sequence (Q13258 1-359): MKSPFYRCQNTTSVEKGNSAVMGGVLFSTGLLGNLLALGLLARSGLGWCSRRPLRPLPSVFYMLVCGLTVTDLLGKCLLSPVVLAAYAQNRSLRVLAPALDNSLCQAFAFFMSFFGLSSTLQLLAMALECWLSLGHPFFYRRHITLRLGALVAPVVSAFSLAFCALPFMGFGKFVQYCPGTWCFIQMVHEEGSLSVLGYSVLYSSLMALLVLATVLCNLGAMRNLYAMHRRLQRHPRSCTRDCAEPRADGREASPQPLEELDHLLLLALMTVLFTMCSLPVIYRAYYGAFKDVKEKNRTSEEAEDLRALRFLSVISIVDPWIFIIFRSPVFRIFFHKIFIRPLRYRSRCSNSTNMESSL
Protocol: as §1, §2, §3, §4

hEP3A/Gqi5 = molecular target: T4, hEP3A/Gqi5 (Homo sapiens, UniProt P43115); experiment: FLIPR calcium signal, EP3; type: cell-based; details: read-out: OTHER RECEPTORS Ca2+ EC50: EP3
T4 construct: expressed in transfected cells
T4 sequence (P43115 1-390): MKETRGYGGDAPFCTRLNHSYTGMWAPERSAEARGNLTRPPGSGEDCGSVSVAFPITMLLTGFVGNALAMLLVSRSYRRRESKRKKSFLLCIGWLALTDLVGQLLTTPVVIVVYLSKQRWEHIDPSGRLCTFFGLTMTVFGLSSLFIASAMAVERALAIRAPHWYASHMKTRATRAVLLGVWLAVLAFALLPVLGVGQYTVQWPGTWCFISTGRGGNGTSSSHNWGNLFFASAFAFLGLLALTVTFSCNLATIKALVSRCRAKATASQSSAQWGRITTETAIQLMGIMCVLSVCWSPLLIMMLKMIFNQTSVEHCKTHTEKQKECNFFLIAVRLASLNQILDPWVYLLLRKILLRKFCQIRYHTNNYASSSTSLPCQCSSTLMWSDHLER
Protocol: as §1, §2, §3
(§8) Compounds were tested in a high-throughput (HTS) or concentration-response (CoRe) format. In the HTS format, forty-four compounds per plate were examined in duplicates at a concentration of 10^−5 M. To generate concentration-response curves, four compounds per plate were tested in duplicates in a concentration range between 10^−5 and 10^−11. The duplicate values were averaged. In either, HTS or CoRe format each compound was tested on at least 3 separate plates using cells from different passages to give an n≧3.

EP2 [1] = molecular target: T5, EP2 (Homo sapiens, UniProt P43116); experiment: Competition radioligand binding, [3H]PGE2, EP2; parameters: expressed in transfected cells; membranes or whole cells; details: [3H]PGE2 competition, HEK 293 cells expressing human EP2
T5 sequence (P43116 whole entry): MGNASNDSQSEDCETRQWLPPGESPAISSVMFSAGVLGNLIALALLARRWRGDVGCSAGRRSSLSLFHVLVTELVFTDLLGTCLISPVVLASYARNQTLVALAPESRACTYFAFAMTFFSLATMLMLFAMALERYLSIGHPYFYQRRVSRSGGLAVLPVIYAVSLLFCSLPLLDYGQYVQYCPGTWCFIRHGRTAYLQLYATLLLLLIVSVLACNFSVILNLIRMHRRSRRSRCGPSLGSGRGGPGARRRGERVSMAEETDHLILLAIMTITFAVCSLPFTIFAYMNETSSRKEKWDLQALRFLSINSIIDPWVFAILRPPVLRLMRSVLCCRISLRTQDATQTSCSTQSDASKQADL
Protocol: Competition binding experiments were performed in a medium containing Hank's balanced salt solution, Hepes 20 mM, pH 7.3, membranes (˜[…] protein) or 2×10^5 cells from HEK 293 cells stably expressing human EP2 receptors, [^3H]PGE2 (10 nM) and various concentrations of test compounds in a total volume of 300 μl. Reaction mixtures were incubated at 23° C. for 60 min, and were filtered over Whatman GF IB filters under vacuum. Filters were washed three times with 5 ml ice-cold buffer containing 50 mM Tris/HCl (PH 7.3). Non-specific binding was estimated in the presence of excess unlabeled PGE2 (10 μM). Binding data fitted to the binding model for a single class of binding sites, using nonlinear regression analysis. IC50 values thus obtained were converted to Ki using the equation of Ki=(IC50/(1+[L]/KD) where [L] represents PGE2 concentration (10 nM) and KD the dissociation constant for [^3H]PGE2 at human EP2 receptors (40 nM).
as §5, §6, §7

EP2 [2] = molecular target: T5, EP2; experiment: cAMP assay, HEK-EBNA cells expressing EP2; type: cell-based; parameters: expressed in transfected cells; host or cells: HEK-EBNA cells
Protocol: A 384-well drug plate was prepared to contain 6 test compounds, PGE2 and cAMP in 16 serial dilutions in triplicate, using a Biomek station. HEK-EBNA cells expressing a target PG receptor subtype (EP2 or EP4) were suspended in a stimulation buffer (HBSS, 0.1% BSA, 0.5 mM IBMX and 5 mM HEPES, pH 7.4) in a density of 10^4 cells/5 μL. The reaction was initiated by mixing 5 μL drug dilutions with 5 μL of HEK-EBNA cells in a well, carried out for 30 min at room temperature, and followed by the addition of 5 μL anti-cAMP acceptor beads in the control buffer with Tween-20 (25 mM NaCl, 0.03% Tween-20, 5 mM HEPES, pH 7.4). After 30 min in the dark at room temperature, the mixtures were incubated with 15 μL biotinylated-cAMP/strepavidin donor beads in Lysis/Detection buffer (0.1% BSA, 0.3% Tween-20 and 5 mM HEPES, pH 7.4) for 45 min at the room temperature. Fluorescence changes were read using a Fusion-alpha HT microplate reader.

hEP2/Gqs5 = molecular target: T6, hEP2/Gqs5 (Homo sapiens, UniProt P43116); experiment: FLIPR calcium signal, EP2; type: cell-based; details: HEK-293(EBNA) hEP2/Gqs5, read-out: EP2 Ca2+ EC50
T6 construct: expressed in transfected cells
T6 sequence (P43116 whole entry): as above
Protocol: as §1, §2, §3, §8

T1 sequence (P35408 whole entry): as the sequence (P35408 whole entry) above

| EC50 (hEP4/Gqs5) [nM] | Ki (EP4 receptors) [nM] | EC50 (hDP/Gqs5) [nM] | EC50 (hEP3A/Gqi5) [nM] | Ki (EP2 [1]) [nM] | EC50 (EP2 [2]) [nM] | EC50 (hEP2/Gqs5) [nM] | Structure (SMILES) |
| --- | --- | --- | --- | --- | --- | --- | --- |
| > 10000 | 2820 | 7730 | 171 | 2 | 0.2 | 48 | C#CC1=C(c2ccc(C(O)CCCCC)cc2)[C@@H](CCCc2ccc(C(=O)O)s2)CC1 (single isomer, unassigned) [compound 1] |
|  | 712 | > 10000 | 1540 | 7 |  | 22 | C#CC1=C(c2ccc(C(O)CCCCC)cc2)[C@@H](CCCc2ccc(C(=O)O)s2)CC1 (single isomer, unassigned) [compound 2] |
| > 10000 | 783 | 220 | 7400 | 17 | 1.5 | 0.5 | CCCCCC(O)c1ccc(C2=C(C#CCO)CC[C@@H]2CCCc2ccc(C(=O)O)s2)cc1 (stereo partly shown) [compound 3] |
| > 10000 | 8190 |  | 7080 | 2530 | 140 | 513 | CCCCCC(O)c1ccc(C2=C(C#Cc3ccccc3)CC[C@@H]2CCCc2ccc(C(=O)O)s2)cc1 (stereo partly shown) [compound 4] |
